{"source": "patent US20240041038A1", "about": "(priority 2020, published 2024)", "key": {"[1]": {"tested_on": "corn earworm (Helicoverpa zea)", "details": "in vivo"}, "[2]": {"tested_on": "corn earworm (Helicoverpa zea)", "details": "in vivo", "remark": "listed apart in the source"}, "[3]": {"tested_on": "beet armyworm (Spodoptera exigua)", "details": "in vivo"}, "[4]": {"tested_on": "lesser mealworm (Alphitobius diaperinus)", "assay": "whole plant or invertebrate", "details": "96 h, read-out: mortality rate"}}, "note": "Bridges are numbered along the chain shown (N, C = ends). Where no end group is shown, it is not given here."}
{"compound": "O=C(NC(=O)c1c(F)cccc1F)Nc1ccc(OC(F)(F)C(F)OC(F)(F)F)c(Cl)c1", "note": "(centres unmarked) [Novaluron]", "values": [{"measurement": "greater than additive insecticidal effect when combined with U+2-ACTX-Hv1a", "setting": "[1]", "result": "Novaluron*"}]}
{"compound": "C/C=C(\\C)C(=O)O[C@H]1C[C@@H](OC(C)=O)[C@@]2(C(=O)OC)CO[C@H]3[C@@H](O)[C@@](C)([C@]45O[C@@]4(C)[C@H]4C[C@@H]5O[C@@H]5OC=C[C@@]54O)[C@H]4[C@]1(CO[C@]4(O)C(=O)OC)[C@@H]32", "note": "[Azadirachtin]", "values": [{"measurement": "mortality", "setting": "[2]", "result": 37.5, "unit": "%"}]}
{"compound": "GSCADINGACKSDCDCCGDSVTCDCYWSDSCKCRESNFKIGMAIRKKFC (disulfide 3-17, 10-23, 14-49, 16-33, 25-31) [Γ-CNTX-Pn1a]", "values": [{"measurement": "mortality", "setting": "[3]", "result": 6, "unit": "%"}, {"measurement": "mortality rate", "setting": "[3]", "result": 3, "unit": "%"}]}
{"compound": "OB(O)O", "note": "[boric acid]", "values": [{"measurement": "mortality at 2500 µg/mL", "setting": "[4]", "result": 10.3, "unit": "%"}]}
